Measurements published in patent publication US20080118529A1 (priority 2005, published 2008).

Key:
[1] = test system: tPA; type: biochemical, human
[2] = target: T1, factor XII (Homo sapiens, UniProt P00748); type: biochemical
[3] = test system: U937 monocytes; type: cell-based, human; settings: 1 h
[4] = target: T1, factor XII; type: biochemical; remark: listed apart in the source
[5] = test system: OVA; parameters: species or system chicken; settings: in vivo
[6] = test system: nOVA; parameters: species or system Balb/c mice; settings: mouse, in vivo
[7] = test system: DOVA; parameters: species or system chicken; settings: in vivo

T1 sequence (P00748 20-615): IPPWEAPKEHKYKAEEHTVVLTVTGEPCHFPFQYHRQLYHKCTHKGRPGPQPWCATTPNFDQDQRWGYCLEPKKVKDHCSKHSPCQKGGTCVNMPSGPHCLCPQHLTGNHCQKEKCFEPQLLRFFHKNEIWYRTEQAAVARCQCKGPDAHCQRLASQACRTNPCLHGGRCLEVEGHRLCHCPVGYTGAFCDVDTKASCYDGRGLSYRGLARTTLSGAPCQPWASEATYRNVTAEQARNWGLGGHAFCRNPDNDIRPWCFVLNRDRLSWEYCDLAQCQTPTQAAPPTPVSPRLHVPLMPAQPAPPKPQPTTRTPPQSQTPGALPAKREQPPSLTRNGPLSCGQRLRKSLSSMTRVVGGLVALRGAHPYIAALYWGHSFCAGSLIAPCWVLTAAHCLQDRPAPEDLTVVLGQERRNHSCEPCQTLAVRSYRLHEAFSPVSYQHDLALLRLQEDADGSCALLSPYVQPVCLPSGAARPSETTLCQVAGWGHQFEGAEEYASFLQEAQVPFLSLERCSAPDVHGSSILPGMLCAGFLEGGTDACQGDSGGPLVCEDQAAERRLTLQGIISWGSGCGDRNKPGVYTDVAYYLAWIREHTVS
Sequence of nOVA (P01012 whole entry): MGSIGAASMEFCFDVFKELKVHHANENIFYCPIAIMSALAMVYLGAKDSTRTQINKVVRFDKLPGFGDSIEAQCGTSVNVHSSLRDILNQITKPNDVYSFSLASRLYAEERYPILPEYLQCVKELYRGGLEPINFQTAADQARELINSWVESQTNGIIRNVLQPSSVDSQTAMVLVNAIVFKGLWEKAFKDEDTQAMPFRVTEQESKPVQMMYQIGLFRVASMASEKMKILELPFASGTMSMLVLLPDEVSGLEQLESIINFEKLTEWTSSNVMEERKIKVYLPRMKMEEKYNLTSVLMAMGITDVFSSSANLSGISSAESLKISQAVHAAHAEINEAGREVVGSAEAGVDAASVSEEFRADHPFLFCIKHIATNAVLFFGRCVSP

CCCCCCCCCCCCCCCCCC[N+](C)(C)CCCCCCCCCCCCCCCCCC.[Br-] [DDA, dimethyl dioctadecyl ammonium bromide]
activation of tPA by adjuvants [1]: activators of tPA

Cc1ccc2c(c1)sc(-c1ccc(N(C)C)cc1)[n+]2C.[Cl-] [ThT, Thioflavin T]
inhibition of factor XII activation by DXS500k and 80× diluted plasma [2]: fully inhibited
inhibition of the stimulatory activity of FP13 K157G on factor XII autoactivation [2]: effectively inhibits

Endostatin
TNFα RNA expression compared to LPS ([3]; 100 μg/ml amyloid endostatin, 260 μg/ml Hb-AGE, 1 μg/ml LPS, normalized to 18S): approximately 30%

Etanercept [Native Etanercept]
tPA/plasminogen activating potential of protein/antigen preparation [1]: some tPA activation

control Hb: control haemoglobin, not glycated
TNFα RNA expression relative to endostatin and Hb-AGE ([3]; 260 μg/ml): approximately threefold lower
TNFα RNA upregulation relative to values after amyloid endostatin or glycated Hb stimulation ([3]; 260 μg/ml): ≤ 30%

dextran-sulphate [DXS500k]
activation of tPA by adjuvants [1]: activators of tPA
activation of factor XII in the presence of prekallikrein and high molecular weight kininogen [4]: only then effectively activated
factor XII activation by DXS500k [2]: only a stimulatory factor for factor XII activation when 80× diluted plasma is present

glucagon [native glucagon]
tPA/plasminogen activating potential of protein/antigen preparation [1]: some tPA activating potential

ovalbumin [nOVA]
anti-OVA titer [5]: can not elicit
anti-nOVA titer after one week [6]: no titer was detected
titer of anti-nOVA antibodies [6]: 610
anti-DOVA titer [7]: can not elicit
